Assay results: ChEMBL document CHEMBL1141757, “Structural revision of aspernigrin A, reisolated from Cladosporium herbarum IFB-E002” (J Nat Prod, 2005)

Columns and labels:
[1] = target: Xanthine dehydrogenase/oxidase (Homo sapiens, UniProt P47989); assay: Inhibition of xanthine oxidase
[2] = Cytotoxicity against human SW1116 cells; assay type: functional, cell-based; settings: SW 1116

Xanthine dehydrogenase/oxidase, sequence (P47989 whole entry): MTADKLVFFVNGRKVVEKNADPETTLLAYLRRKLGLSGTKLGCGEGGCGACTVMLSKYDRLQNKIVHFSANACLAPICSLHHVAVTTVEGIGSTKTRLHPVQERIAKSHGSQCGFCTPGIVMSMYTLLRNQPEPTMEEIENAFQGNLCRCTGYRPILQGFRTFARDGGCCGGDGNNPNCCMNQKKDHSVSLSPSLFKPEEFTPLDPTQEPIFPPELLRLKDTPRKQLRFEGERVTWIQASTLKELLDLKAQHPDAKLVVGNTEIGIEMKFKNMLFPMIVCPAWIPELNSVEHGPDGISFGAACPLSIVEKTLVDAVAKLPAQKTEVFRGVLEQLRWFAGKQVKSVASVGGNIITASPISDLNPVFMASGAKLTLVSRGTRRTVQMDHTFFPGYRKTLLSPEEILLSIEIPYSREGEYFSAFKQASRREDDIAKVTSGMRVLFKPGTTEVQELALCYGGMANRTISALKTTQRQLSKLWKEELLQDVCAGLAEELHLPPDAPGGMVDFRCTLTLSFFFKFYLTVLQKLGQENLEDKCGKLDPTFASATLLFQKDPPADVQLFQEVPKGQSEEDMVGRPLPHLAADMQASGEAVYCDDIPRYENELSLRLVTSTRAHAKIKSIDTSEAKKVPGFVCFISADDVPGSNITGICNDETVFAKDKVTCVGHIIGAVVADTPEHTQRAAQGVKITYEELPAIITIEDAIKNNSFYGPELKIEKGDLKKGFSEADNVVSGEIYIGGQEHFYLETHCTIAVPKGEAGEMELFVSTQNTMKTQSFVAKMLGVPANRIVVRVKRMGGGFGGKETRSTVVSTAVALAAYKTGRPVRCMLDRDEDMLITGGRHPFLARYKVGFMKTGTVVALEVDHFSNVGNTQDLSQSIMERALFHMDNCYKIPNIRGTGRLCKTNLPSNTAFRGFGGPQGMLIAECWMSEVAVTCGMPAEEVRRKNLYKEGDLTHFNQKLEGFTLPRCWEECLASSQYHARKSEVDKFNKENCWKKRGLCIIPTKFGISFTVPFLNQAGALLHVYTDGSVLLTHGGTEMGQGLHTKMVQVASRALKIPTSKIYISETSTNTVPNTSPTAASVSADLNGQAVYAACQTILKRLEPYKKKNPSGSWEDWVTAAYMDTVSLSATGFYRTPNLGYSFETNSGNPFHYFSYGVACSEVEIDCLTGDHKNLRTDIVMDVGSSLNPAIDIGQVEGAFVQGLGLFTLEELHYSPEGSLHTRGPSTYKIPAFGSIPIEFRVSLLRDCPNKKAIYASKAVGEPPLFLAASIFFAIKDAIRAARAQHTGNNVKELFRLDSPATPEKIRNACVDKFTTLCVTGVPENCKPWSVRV

SMILES	IC50 [1] [µM]	IC50 [2] [µM]
COc1cc(OC)c2c(O)c3c(=O)cc(C)oc3c(-c3c(OC)cc4cc(O)c5c(=O)cc(C)oc5c4c3OC)c2c1 [FONSECINONE A]	19.5	–
COc1cc(OC)c2c(O)c3c(=O)cc(C)oc3cc2c1 [RUBROFUSARIN B]	16.8	15.7
